# Laboratory results from patent US11542246B2, “Quinoline compounds as IRAK inhibitors and uses thereof” (Merck Patent GmbH, priority 2018, dated 2023).
# Key:
# [1] = target: IRAK1 (Homo sapiens (Human), UniProt P51617); test: IRAK1 Enzymatic Assay; format: biochemical; settings: His-TEV-IRAK1 (194-712), ATP 1 μM, 3 hours at 30° C.
# Protocol: IRAK1 is a human purified recombinant enzyme (His-TEV-IRAK1 (194-712)). In this assay, IRAK-1 hydrolyses ATP and autophosphorylates. Measurement of IRAK-1 inhibition was performed in streptavidin coated 384 well FlashPlate (PerkinElmer #SMP410A). His-TEV-IRAK-1 (15 ng/well), ATP (1 μM, [33P]ATP 0.25 μCi/well) and compounds in DMSO (range of concentrations from 20 μM to 1 nM) or controls (2% DMSO) were incubated for 3 hours at 30° C. in assay buffer: Hepes pH7.0 50 mM, Fatty acid-free BSA 0.1%, Dithiothreitol DTT 2 mM, MgCl2 10 mM, EGTA 0.5 mM, Triton-X-100 0.01%. Kinase reaction was stopped by addition of EDTA. Supernatant was discarded, plates were washed three times with 150 mM NaCl and radioactivity was then measured in a Microbeta Trilux reader.
# [2] = target: IRAK4 (Homo sapiens, UniProt Q9NWZ3); test: IRAK4 Enzymatic Assay; format: biochemical; settings: His-TEV-IRAK4, ATP 2 μM, STK1-biotin peptide 300 nM, 3 hours at 30° C.
# IRAK4, sequence (Q9NWZ3 whole entry, looked up): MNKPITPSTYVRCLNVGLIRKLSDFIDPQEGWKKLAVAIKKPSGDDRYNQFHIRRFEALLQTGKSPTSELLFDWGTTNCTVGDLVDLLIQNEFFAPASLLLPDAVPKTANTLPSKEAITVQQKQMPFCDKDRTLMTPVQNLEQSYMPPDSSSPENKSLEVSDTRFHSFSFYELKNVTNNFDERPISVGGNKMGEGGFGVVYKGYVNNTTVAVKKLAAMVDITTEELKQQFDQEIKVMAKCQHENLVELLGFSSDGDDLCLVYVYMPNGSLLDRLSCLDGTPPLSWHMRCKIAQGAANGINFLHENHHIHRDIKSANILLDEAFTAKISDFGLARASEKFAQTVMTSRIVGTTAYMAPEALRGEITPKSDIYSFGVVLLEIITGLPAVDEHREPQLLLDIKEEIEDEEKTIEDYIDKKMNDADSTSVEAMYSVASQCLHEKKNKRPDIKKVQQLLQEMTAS
# Protocol: IRAK4 Enzymatic Assay IRAK4 is a human purified recombinant enzyme ([…]. IRAK4 hydrolyses ATP, autophosphorylates and phosphorylates a Serine/Threonine generic peptidic substrate (STK: 61ST1BLC from CisBio International based in Bagnols/Cèze FR). Measurement of IRAK-4 inhibition was performed in streptavidin coated 384 well FlashPlate (PerkinElmer #SM[…]). His-TEV-IRAK4 (20 ng/well), ATP (2 μM, [^33P]ATP 0.25 μCi/well), STK1-biotin peptide (300 nM) and compounds in DMSO (range of concentrations from 20 μM to 1 nM) or controls (2% DMSO) were incubated for 3 hours at 30° C. in assay buffer: Hepes pH7.0 50 mM, Fatty acid-free BSA 0.1%, Dithiothreitol DTT 2 mM, MgCl2 10 mM, EGTA 0.5 mM, Tween-20 0.01%, MnCl2 5 mM. Kinase reaction was stopped by addition of EDTA.
# [3] = system: TLR7 induced IL-6 secretion in human mononuclear cells (PBMC's); test: TLR7 induced IL-6 in Human PBMC's; format: cell-based; settings: TLR7 specific ligand 2 uM overnight, IL-6 Alpha LISA
# Protocol: TLR7 induced IL-6 in Human PBMC's
# Human PBMC assay was used as one of the functional assays to monitor the activity of IRAK1 and IRAK4 small molecule inhibitors on TLR7 induced IL-6 secretion in human mononuclear cells (PBMC's). Human PBMCs were prepared from buffy coats (whole blood enriched with leukocytes and platelets) obtained from healthy volunteers used either fresh or frozen are plated in assay media (RPMI+2% P/S/L-glu+10% HI-FBS) and pre-treated with compounds in DMSO/media (range of concentrations from 25 uM to 0.4 nM) or controls (0.25% DMSO) for 30 minutes at 37° C. in assay media. Following pre-treatment with IRAK1 and IRAK4 inhibitors, PBMC's were stimulated with TLR7 specific ligand (2 uM) overnight (16-18 hrs) at 37° C. After incubation supernatant was transferred to 384 well PE AlphaPlate-384 (6005350) and IL-6 is quantified using Perkin Elmer IL-6 Alpha LISA kit (AL223C). Plates were read on an Envision® plate reader with Alpha Technology®.
# IRAK1, sequence (P51617 194-712): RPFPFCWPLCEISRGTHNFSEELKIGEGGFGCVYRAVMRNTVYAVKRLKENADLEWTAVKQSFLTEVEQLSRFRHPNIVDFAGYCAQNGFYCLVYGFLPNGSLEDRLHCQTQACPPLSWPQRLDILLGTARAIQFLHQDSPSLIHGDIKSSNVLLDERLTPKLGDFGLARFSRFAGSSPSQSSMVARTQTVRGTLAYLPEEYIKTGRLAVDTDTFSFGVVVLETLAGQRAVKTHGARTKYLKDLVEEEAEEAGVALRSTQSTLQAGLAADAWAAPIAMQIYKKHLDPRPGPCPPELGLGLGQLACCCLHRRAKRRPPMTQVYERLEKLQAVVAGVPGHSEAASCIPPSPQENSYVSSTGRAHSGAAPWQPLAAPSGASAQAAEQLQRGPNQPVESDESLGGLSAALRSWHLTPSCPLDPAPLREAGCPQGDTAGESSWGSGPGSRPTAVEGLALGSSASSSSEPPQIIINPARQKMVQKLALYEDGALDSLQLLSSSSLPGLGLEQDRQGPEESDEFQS
Compound,IC50 [1] [µM],IC50 [2] [µM],IC50 [3] [µM]
"COc1nc2c(OCC3CCC(=O)N3)cccc2cc1C(N)=O (stereo not shown) [Compound 1, 2-Methoxy-8-(5-oxo-pyrrolidin-2-ylmethoxy)-quinoline-3-carboxylic acid amide]",> 5,< 0.1,< 0.5
"COc1cc2c(OCC3CCC(=O)N3)cccc2nc1C(N)=O (stereo not shown) [Compound 2, 3-Methoxy-5-(5-oxo-pyrrolidin-2-ylmethoxy)-quinoline-2-carboxylic acid amide]",> 5,0.1 to 1,–
"COc1nc2c(OC[C@@H]3CCC(=O)N3)cccc2cc1C(N)=O [Compound 3, 2-Methoxy-8-((S)-5-oxo-pyrrolidin-2-ylmethoxy)-quinoline-3-carboxylic acid amide]",1 to 5,< 0.1,< 0.5
"CC[C@@H]1[C@H](F)C(=O)N[C@@H]1COc1cccc2cc(C(N)=O)c(OC)nc12 [Compound 4, 8-((2S,3S,4S)-3-Ethyl-4-fluoro-5-oxo-pyrrolidin-2-ylmethoxy)-2-methoxy-quinoline-3-carboxylic acid amide]",0.1 to 1,< 0.1,< 0.5
"COc1nc2c(OC[C@@H]3CC(F)(F)C(=O)N3)cccc2cc1C(N)=O [Compound 5, 8-((S)-4,4-Difluoro-5-oxo-pyrrolidin-2-ylmethoxy)-2-methoxy-quinoline-3-carboxylic acid amide]",1 to 5,< 0.1,< 0.5
"CC[C@@H]1[C@H](F)C(=O)N[C@@H]1COc1nccc2cc(C(N)=O)c(OC)nc12 [Compound 6, 8-((2S,3S,4S)-3-Ethyl-4-fluoro-5-oxo-pyrrolidin-2-ylmethoxy)-2-methoxy-[1,7]naphthyridine-3-carboxylic acid amide]",1 to 5,< 0.1,–
